Source: patent US20260108527A1, “POLO LIKE KINASE 4 INHIBITORS” (ORIC Pharmaceuticals, Inc., priority 2022, published 2026)

Assays:
human recombinant PLK4 = target: T1, human recombinant PLK4 (Homo sapiens, UniProt O00444); assay: PLK4 Biochemical Assay (ADP-Glo); conditions: 0.5 nM PLK4, 8.0 μM ATP, 4.7 μM MBP, 6 hours at RT
T1 construct: purchased ThermoFisher PV6396
T1 sequence (O00444 1-970): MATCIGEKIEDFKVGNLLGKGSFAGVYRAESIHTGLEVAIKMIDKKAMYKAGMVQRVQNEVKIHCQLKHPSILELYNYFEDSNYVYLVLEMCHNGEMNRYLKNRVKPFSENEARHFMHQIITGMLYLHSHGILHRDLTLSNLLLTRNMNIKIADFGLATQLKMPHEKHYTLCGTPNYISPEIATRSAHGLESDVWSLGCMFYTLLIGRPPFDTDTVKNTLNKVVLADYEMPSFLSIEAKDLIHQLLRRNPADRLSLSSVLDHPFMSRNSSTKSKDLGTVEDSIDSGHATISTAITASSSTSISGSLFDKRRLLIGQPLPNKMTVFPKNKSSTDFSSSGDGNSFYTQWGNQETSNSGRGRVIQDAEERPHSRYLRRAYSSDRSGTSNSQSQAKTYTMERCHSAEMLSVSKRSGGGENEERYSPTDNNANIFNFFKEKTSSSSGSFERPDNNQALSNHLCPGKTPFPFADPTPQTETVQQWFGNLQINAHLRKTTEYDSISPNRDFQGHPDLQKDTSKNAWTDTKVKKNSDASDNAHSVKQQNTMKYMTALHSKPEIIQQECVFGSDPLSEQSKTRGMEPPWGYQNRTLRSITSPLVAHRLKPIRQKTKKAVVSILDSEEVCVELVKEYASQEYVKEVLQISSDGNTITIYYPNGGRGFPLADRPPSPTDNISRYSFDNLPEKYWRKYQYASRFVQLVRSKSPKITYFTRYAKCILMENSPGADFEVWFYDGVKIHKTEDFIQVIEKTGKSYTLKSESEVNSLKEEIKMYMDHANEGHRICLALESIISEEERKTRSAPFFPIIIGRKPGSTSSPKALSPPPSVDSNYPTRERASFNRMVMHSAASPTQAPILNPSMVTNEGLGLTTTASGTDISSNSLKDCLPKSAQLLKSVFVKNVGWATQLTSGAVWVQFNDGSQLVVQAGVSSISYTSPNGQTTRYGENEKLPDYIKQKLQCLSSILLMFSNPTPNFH
Protocol: Activity of human recombinant PLK4 (ThermoFisher, cat #PV6396) was measured by quantification of adenosine diphosphate (ADP) using the ADP-Glo Kinase Assay Kit (Promega, cat #V9102). […] 5 μL of 1.0 nM PLK4 protein in assay buffer (50 mM HEPES, pH 7.5, 0.01% Brij-35, 0.01% BSA, 10 mM MgCl2, 1 mM EGTA, 1 mM DTT) was added to the plates. Test compounds and PLK4 were incubated for 15 minutes at room temperature (RT). […] Reactions were stopped and the remaining ATP depleted by adding 10 μL of ADP-Glo reagent (Promega, cat #V912B) and incubating for 40 minutes at RT. The simultaneous conversion of the remaining ADP to ATP and measurement of the newly synthesized ATP was achieved by addition of 20 μL Kinase Detection reagent (Promega, cat #V914B), incubation for 30 min at RT, and luminescence detection using the EnVision plate reader (PerkinElmer). […] The IC50 values reported in Table 2 were determined using four parameter non-linear regression curve fit.

[1] = target: T2, human recombinant Aurora A (Homo sapiens, UniProt O14965); assay: Aurora A Kinase Biochemical Assay (ADP-Glo); conditions: selectivity ratio; Aurora A 2.5 nM, 20 μM ATP
T2 construct: purchased ThermoFisher PR5935A
T2 sequence (O14965 1-403): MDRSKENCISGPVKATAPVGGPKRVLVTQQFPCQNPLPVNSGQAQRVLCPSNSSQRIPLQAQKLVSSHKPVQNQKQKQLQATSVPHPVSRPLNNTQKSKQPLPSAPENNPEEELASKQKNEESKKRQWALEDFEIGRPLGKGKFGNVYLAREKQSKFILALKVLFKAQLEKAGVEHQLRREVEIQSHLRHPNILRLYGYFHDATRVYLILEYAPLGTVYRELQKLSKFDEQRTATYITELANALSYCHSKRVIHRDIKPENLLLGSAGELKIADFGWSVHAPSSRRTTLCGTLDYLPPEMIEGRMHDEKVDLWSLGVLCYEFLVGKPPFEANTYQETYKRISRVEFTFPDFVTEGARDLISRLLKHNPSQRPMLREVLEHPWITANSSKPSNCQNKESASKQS
Protocol: Activity of human recombinant Aurora A (ThermoFisher, cat #PR5935A) was measured by quantification of adenosine diphosphate (ADP) using the ADP-Glo Kinase Assay Kit (Promega, cat #V9102). Test compounds were solubilized in dimethyl sulfoxide (DMSO) and dispensed into 384-well white polystyrene nonbinding plates (Greiner, cat #781094) using the Echo acoustic dispenser (Labcyte Inc.) in a 11-point 3-fold titration in duplicates. 5 μL of 5.0 nM Aurora A in assay buffer (50 mM HEPES, pH 7.5, 0.01% Brij-35, 0.01% BSA, 10 mM MgCl2, 1 mM EGTA, 1 mM DTT) was added to the plates. Test compounds and Aurora A were incubated for 15 minutes at room temperature (RT). Then 5 μL of a 40 μM adenosine triphosphate (ATP) (Promega, cat #V915B) and 9.3 μM Myelin Basic Protein (MBP) (SignalChem, cat #M42-51N) substrate solution in assay buffer was added and the reaction mixture was incubated for 2 hours at RT. The final concentration of Aurora A, ATP and MBP in the reactions were 2.5 nM, 20 μM and 4.7 μM, respectively. Reactions were stopped and the remaining ATP depleted by adding 10 μL of ADP-Glo reagent (Promega, cat #V912B) and incubating for 40 minutes at RT. The simultaneous conversion of the remaining ADP to ATP and measurement of the newly synthesized ATP was achieved by addition of 20 μL Kinase Detection reagent (Promega, cat #V914B), incubation for 30 min at RT, and luminescence detection using the EnVision plate reader (PerkinElmer). Reactions lacking Aurora A were used as 100% inhibition controls. Reactions containing DMSO alone were used as 0% inhibition controls. The IC50 values reported in Table 2 were determined using four parameter non-linear regression curve fit.

Compound	IC50 (human recombinant PLK4) [nM]	[Aurora A IC50 (nM)]/[PLK4 IC50 (nM)] [1]
CCOc1cc(-c2cnccn2)ccc1Nc1n[nH]c2cc([C@@H]3C[C@@]34C(=O)Nc3ccc(OC)cc34)ccc12 [Example 7, (1R,2S)-2-{3-[2-ethoxy-4-(pyrazin-2-yl)anilino]-1H-indazol-6-yl}-5′-methoxyspiro[cyclopropane-1,3′-indol]-2′(1′H)-one]	1.71	10956.01173
COc1ccc2c(c1)[C@]1(C[C@H]1c1ccc3c(Nc4ccc(C(C)=O)cc4OC)n[nH]c3c1)C(=O)N2 [Example 3, (1R,2S)-2-[3-(4-acetyl-2-methoxyanilino)-1H-indazol-6-yl]-5′-methoxyspiro[cyclopropane-1,3′-indol]-2′(1′H)-one]	2.76	1671.3768
CCOc1cc(S(C)(=O)=O)ccc1Nc1n[nH]c2cc([C@@H]3C[C@@]34C(=O)N(C)c3ccc(OC)cc34)ccc12 [Example 23, (1R,2S)-2-{3-[2-ethoxy-4-(methanesulfonyl)anilino]-1H-indazol-6-yl}-5′-methoxy-1′-methylspiro[cyclopropane-1,3′-indol]-2′(1′H)-one]	1.41	2258.3629
COc1ccc2c(c1)[C@]1(C[C@H]1c1ccc3c(Nc4cc5c(cc4OC)S(=O)(=O)C=C5)n[nH]c3c1)C(=O)N2 [Example 6, 6-methoxy-5-({6-[(1R,2S)-5′-methoxy-2′-oxo-1′,2′-dihydrospiro[cyclopropane-1,3′-indol]-2-yl]-1H-indazol-3-yl}amino)-1H-1-benzothiophene-1,1-dione]	0.952	581.0754
COc1ccc2c(c1)[C@]1(C[C@H]1c1ccc3c(Nc4nc(-c5ncco5)cnc4OC)n[nH]c3c1)C(=O)N2 [Example 19, (1R,2S)-5′-methoxy-2-(3-{[3-methoxy-6-(1,3-oxazol-2-yl)pyrazin-2-yl]amino}-1H-indazol-6-yl)spiro[cyclopropane-1,3′-indol]-2′(1′H)-one]	0.99	360
COc1ccc2c(c1)[C@]1(C[C@H]1c1ccc3c(Nc4cc(-c5cscn5)ccc4OC)n[nH]c3c1)C(=O)N2 [Example 15, (1R,2S)-5′-methoxy-2-{3-[2-methoxy-5-(1,3-thiazol-4-yl)anilino]-1H-indazol-6-yl}spiro[cyclopropane-1,3′-indol]-2′(1′H)-one]	0.65	146.5230
CCOc1cc(-n2cncn2)ccc1Nc1n[nH]c2cc([C@@H]3C[C@@]34C(=O)Nc3ccc(OC)cc34)ccc12 [Example 10, (1R,2S)-2-{3-[2-ethoxy-4-(1H-1,2,4-triazol-1-yl)anilino]-1H-indazol-6-yl}-5′-methoxyspiro[cyclopropane-1,3′-indol]-2′(1′H)-one]	0.557	2540.3949
COc1ccc2c(c1)[C@]1(C[C@H]1c1ccc3c(Nc4cc(-c5ncco5)ccc4OC)n[nH]c3c1)C(=O)N2 [Example 13, (1R,2S)-5′-methoxy-2-{3-[2-methoxy-5-(1,3-oxazol-2-yl)anilino]-1H-indazol-6-yl}spiro[cyclopropane-1,3′-indol]-2′(1′H)-one]	0.65	414.8

Second part, the molecule after the results:

IC50 (human recombinant PLK4) [nM]	[Aurora A IC50 (nM)]/[PLK4 IC50 (nM)] [1]	Compound
0.341	1135	CCOc1ccc(-c2nccs2)nc1Nc1n[nH]c2cc([C@@H]3C[C@@]34C(=O)Nc3ccc(OC)cc34)ccc12 [Example 28, (1R,2S)-2-(3-{[3-ethoxy-6-(1,3-thiazol-2-yl)pyridin-2-yl]amino}-1H-indazol-6-yl)-5′-methoxyspiro[cyclopropane-1,3′-indol]-2′(1′H)-one]
0.16	702.5	CCOc1cnc(-c2nccs2)nc1Nc1n[nH]c2cc([C@@H]3C[C@@]34C(=O)Nc3ccc(OC)cc34)ccc12 [Example 44, (1R,2S)-2-(3-{[5-ethoxy-2-(1,3-thiazol-2-yl)pyrimidin-4-yl]amino}-1H-indazol-6-yl)-5′-methoxyspiro[cyclopropane-1,3′-indol]-2′(1′H)-one]
0.139	42971.2230	CCOc1cnc(C#CC(C)(C)O)nc1Nc1n[nH]c2cc([C@@H]3C[C@@]34C(=O)Nc3ccc(OC)cc34)ccc12 [Example 45, (1R,2S)-2-(3-((5-ethoxy-2-(3-hydroxy-3-methylbut-1-yn-1-yl)pyrimidin-4-yl)amino)-1H-indazol-6-yl)-5′-methoxyspiro[cyclopropane-1,3′-indolin]-2′-one]
1.31	157.8304	COc1ccc2c(c1)[C@]1(C[C@H]1c1ccc3c(Nc4cc(-c5cocn5)cnc4OC)n[nH]c3c1)C(=O)N2 [Example 42, (1R,2S)-5′-methoxy-2-(3-{[2-methoxy-5-(1,3-oxazol-4-yl)pyridin-3-yl]amino}-1H-indazol-6-yl)spiro[cyclopropane-1,3′-indol]-2′(1′H)-one]
1.07	14827.5862	CCOc1cnc(-c2nccs2)cc1Nc1n[nH]c2cc([C@@H]3C[C@@]34C(=O)Nc3ccc(OC)cc34)ccc12 [Example 34, (1R,2S)-2-(3-{[5-ethoxy-2-(1,3-thiazol-2-yl)pyridin-4-yl]amino}-1H-indazol-6-yl)-5′-methoxyspiro[cyclopropane-1,3′-indol]-2′(1′H)-one]
1.95	15611.2532	CCOc1cc(-c2cn(C)cn2)ccc1Nc1n[nH]c2cc([C@@H]3C[C@@]34C(=O)Nc3ccc(OC)cc34)ccc12 [Example 29, (1R,2S)-2-{3-[2-ethoxy-4-(1-methyl-1H-imidazol-4-yl)anilino]-1H-indazol-6-yl}-5′-methoxyspiro[cyclopropane-1,3′-indol]-2′(1′H)-one]
0.694	916.8947	COc1ccc2c(c1)[C@]1(C[C@H]1c1ccc3c(Nc4cc(-c5ccsn5)ccc4OC)n[nH]c3c1)C(=O)N2 [Example 30, (1R,2S)-5′-methoxy-2-{3-[2-methoxy-5-(1,2-thiazol-3-yl)anilino]-1H-indazol-6-yl}spiro[cyclopropane-1,3′-indol]-2′(1′H)-one]
